# Measured values as given in PubChem BioAssay AID179 (DTP/NCI, 2004).
# Activity calls are given as the source filed them.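 The calls were made as follows: active = compounds giving half or more protection of infected cells from virus-caused growth loss, again on retest; inactive = the rest.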 Where a SMILES comes first, the peptide text is derived from it.
# Tested on: CEM cells HIV-1 protection, formazan growth assay
# Assay: NCI AIDS Antiviral Assay
# Conditions: for IC50: measured here: growth of uninfected CEM cells
# Outline: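 Human CEM cells, uninfected and HIV-1-infected, received five drug concentrations, and growth was read by soluble formazan assay. Compounds giving at least 50% protection were retested; reproducible 100% protection defined confirmed active.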
Structure (SMILES),EC50 [µM],IC50 [µM],outcome
CCOC(=O)c1c(C(CC)C(=O)OC(C)C)cc2n(c1=O)Cc1c-2nc2ccccc2c1Cl (stereo not given),> 10,> 10,
CC1CC(C#N)=C2NCCN2C1=O (stereo not given),> 200,> 200,
O=C1CCCC12CCOC2=O (stereo not given),> 1620,> 1620,
Cc1cccc[c]1[Sb](=[O])([OH])[OH],,,active
O=C1CCCSC(=O)N1Cc1ccccc1,> 200,> 200,
CSc1n[nH]c2n[nH]c(C)c12,> 200,105,
COc1cc(O)c(C(=O)CC(C)=O)c(OC)c1,> 398,174,
CCC[CH2][Sn]1([CH2]CCC)[O]CC(C)[O]1 (stereo not given),,,inactive
COC(=O)[C@@H]1CO[C@H](C(C)(C)C)N1C(=O)N1C=CC(=O)C[C@H]1C,> 200,> 200,
Nc1nn2cc3c(nc2c1N=Nc1ccccc1)CCCCC3,> 200,> 200,
CCN(CC)CCCNCc1cc(Cl)c2cccnc2c1O,> 200,9.77,
COC(=O)c1ccccc1N=Cc1ccc(N(CCC#N)S(=O)(=O)c2ccccc2)cc1,> 562,479,
O=C(O)c1cc(=O)c2[nH]c3ccccc3c2s1,,,inactive
O=C1C(Cl)=C(Cl)C(=O)N1c1ccc(Cl)c(Cl)c1Cl,,,inactive
COc1ccc(C2(C3c4cc(OC)c(OC)cc4CCN3C)SCCCS2)cc1O (stereo not given),> 200,151,
CCn1c(-c2ccc(C)cc2)cs/c1=N\C(P(=O)(O)O)P(=O)(O)O,> 50.1,> 50.1,
CCN(CC)C(=O)c1ccc(O)c(OC)c1,> 200,> 200,
CO[C@@H]1C2OC(C)(C)OC2O[C@@H]1C1OC[C@H]2O[C@@H](n3ccc(=O)[nH]c3=O)C(O)[C@H]2N1O (stereo not given in full),> 200,148,
O=C(O)/C(=C/C=C/c1ccccc1)c1csc(-c2nc(/C(=C\C=C\c3ccccc3)C(=O)O)cs2)n1,> 182,> 100,
CN(C)/C=C1\CCc2ccc([N+](=O)[O-])cc2C1=O,> 200,93.3,
Cc1cccc(C)c1NC(=O)CN(CC(C)C)CC(O)COc1ccccc1 (stereo not given),> 200,27.5,

Structure (SMILES),EC50 [µM],IC50 [µM],outcome
CC(C)CC(NC(=O)C(Cc1cnc[nH]1)NC(=O)C(CC(N)=O)NC(=O)C(NC(=O)C(CO)NC(=O)C(Cc1ccc(O)cc1)NC(=O)C(CO)NC(=O)C(C)NC(=O)C(N)CCCCN)C(C)O)C(=O)O (stereo not given) (H-KASYSTNHL-OH; configuration not given here),> 61.7,> 61.7,
O=C1CC(c2ccoc2)NC(=O)N1CCCl (stereo not given),> 200,> 200,
O=C(CSc1nnc(-c2ccc(N=Cc3ccc(Cl)cc3)cc2)o1)Nc1ccc(Cl)cc1,> 269,141,
CCCc1cc(=O)oc2c3c(c4c(c12)OC(C)(C)[C@H](O)[C@@H]4O)O[C@@H](C)[C@H](C)[C@@H]3O,> 200,87.1,
c1ccc(P(CC[As](c2ccccc2)c2ccccc2)CC[As](c2ccccc2)c2ccccc2)cc1,> 20.9,2.14,
Cc1ccc2[nH]c3nc4cc(C)c(C)cc4nc3c2c1,> 7.24,> 7.24,
COC(=O)c1ccc2c(c1)CC1(C2)Cc2cc3c(cc2C1)CCC3,> 200,> 200,
CC(CCC#CC(=O)O)OC1CCCCO1 (stereo not given),> 200,> 200,
O=C(O)c1[nH]c(=O)[nH]c(=O)c1C(=O)O,> 200,> 200,
C=Cc1ccc(CC)cn1,> 200,> 200,
CCCCNC(=S)Nn1c(-c2ccccc2)nc2ccccc2c1=O,> 20.4,> 20.4,
CO[C@@H]1C=C[C@@]23c4cc5c(cc4C(=O)O[C@H]2CN(C)[C@H]3C1)OCO5,> 380,> 380,
CC(=O)/C=C\C(=O)NNS(=O)(=O)c1ccc(C)cc1,> 891,832,
CCCCCCOCC(=O)O,> 200,> 200,
CCC1=C(C)c2cc3[n-]c(cc4nc(cc5[n-]c(cc1n2)c(C)c5CCC(=O)OC)C(CCC(=O)OC)=C4C)c(C)c3CC.[Cu+2],,,inactive
[C-]#[O+].[C-]#[O+].[C-]#[O+].[C-]#[O+].[Cr].c1ccc(P(CCP(CCP(c2ccccc2)c2ccccc2)c2ccccc2)CCP(c2ccccc2)c2ccccc2)cc1 (stereo not given),> 1.74,> 1.74,
CCCCN(CCCC)CC(C(=O)Nc1ccc([N+](=O)[O-])cc1[N+](=O)[O-])/C(C)=N\NC(=O)C[N+](C)(C)C (stereo not given),> 46.8,> 46.8,
COc1cc2c(cc1O)[C@H]1COc3ccccc3[C@H]1O2,> 93.3,4.9,
COC1/C=C/OC2(C)Oc3c(C)c(O)c4c(O)c(c(/C=N/OC/C=C(\C)CCC=C(C)C)c(O)c4c3C2=O)NC(=O)C(C)=C/C=C/C(C)C(O)C(C)C(O)C(C)C(OC(C)=O)C1C (stereo not given),> 200,4.47,
CC1CCC(O)C(C(O)CC2CC(=O)NC(=O)C2)C1 (stereo not given),> 200,> 200,
O=C(C=Nc1ccccc1C(=O)[O-])c1cccs1.O=C(C=Nc1ccccc1C(=O)[O-])c1cccs1.[Zn+2],,,inactive

Structure (SMILES),EC50 [µM],IC50 [µM],outcome
Nc1[nH]nc2nc3ccc(C(F)(F)F)cc3nc12,> 200,29.5,
COc1ccc(/C=C/C(=O)c2sc(NC(=S)NC(=O)c3ccccc3F)nc2C)cc1OC,> 74.1,> 74.1,
Cc1ccc(-c2csc(=Nc3ccccc3)n2NC(=O)c2ccncc2)cc1,> 200,22.9,
O=C(O)CCC(=O)NCCNC(=O)CC(=O)O,> 1000,> 1000,
Nc1ccc(SCc2ccc(C(=O)O)cc2[N+](=O)[O-])cc1,> 813,339,
Cn1cc(NC(=O)c2cc([N+](=O)[O-])cn2C)cc1C(=O)Nc1cc(S(=O)(=O)O)c2cc(S(=O)(=O)O)cc(S(=O)(=O)O)c2c1,275,347,
COC(=O)C(=O)C(C(=O)OC)C(=O)C(=O)Nc1c(Cl)cc([N+](=O)[O-])cc1Cl (stereo not given),> 23.4,> 23.4,
CC(=O)C(C=NCCN=CC(C(C)=O)C(C)=O)C(C)=O.[Ni],> 200,> 200,
CC[C@]1(Cc2ccc(OC)c(OC)c2)C=[N+]([O-])O[C@H](OC2CCCC2(c2ccccc2)c2ccccc2)[C@@H]1OC(C)=O (stereo not given in full),> 200,3.8,
CCOC(=O)OC1C(Br)C2CCC1(C)C2(C)C (stereo not given),> 200,> 200,
COc1ccc2c(c1)[n+](=O)c(C(=O)CC(=O)C(=O)Nc1cccc(C)c1C)c(C)n2[O-],> 117,> 117,
c1cnc2c(c1)-n1cccc1C1(CCOCC1)NN2,> 200,> 200,
O=c1[nH]c(C2CCCCC2)nc2cc(Cl)ccc12,,,inactive
CCOC(=O)C(Br)=C1OC(=O)c2ccccc2-c2ccccc21 (mixture of isomers),> 36.3,> 36.3,
O=C1Nc2nccnc2C(=O)N2CCC[C@@H]12,> 200,> 200,
CCCC1N2CCCCC2[C@@H]2c3[nH]c4ccccc4c3CCN12 (stereo not given in full),> 427,> 427,
CC12CC3CC(C1)CC(N=[N+]=[N-])(C3)C2,> 70.8,> 70.8,
Clc1cccc(Cl)c1Nc1ccccc1Cc1nc2ccccc2[nH]1,> 200,75.9,
COc1ccc(/C(=N\N=C(N)N)C(c2ccc(OC)cc2)C2OC(=O)c3ccccc32)cc1 (stereo not given),> 3.24,> 3.24,
CN1C(=O)NC2(O)c3ccccc3C(=O)C12O (stereo not given),> 1070,> 1070,
CCCCc1c2c(nc3c1CCC/C3=C\c1ccccc1)C(=O)CCC2,> 5.75,> 5.75,

Structure (SMILES),EC50 [µM],IC50 [µM],outcome
CC1(C)CC(C2=NCCO2)CC(C)(C)N1,> 200,> 200,
CN1CC(C)(C)NC(=O)[C@@](C)(OCc2ccccc2)CN(C)CC(C)(C)NC(=O)[C@](C)(OCc2ccccc2)C1,> 200,120,
O=c1[nH]nc(Cc2ccc(Cl)cc2)n1/N=C\CC/C=N\n1c(Cc2ccc(Cl)cc2)n[nH]c1=O,> 200,148,
COc1cc2nc(CCc3nc4cc(OC)c(OC)cc4[nH]3)[nH]c2cc1OC,> 17,12.3,
COC(=O)c1ccc(CN2CCc3c([nH]c4ccccc34)C2CO)o1 (stereo not given),> 148,52.5,
CCOC(=O)C1(C(=O)OCC)OC(=O)NC2=C1CCCC2,> 832,145,
Nc1cc(-c2ccc(Cl)cc2)nn1-c1nnc2c(n1)[nH]c1ccccc12,> 200,> 200,
CCCN(CCC)c1cc2c(cc1F)c(=O)c(C(=O)O)cn2-c1ccc(N2CCN(C)CC2)cn1,> 200,14.8,
NC1=N[C@H]2CS[C@@H](CCCCC(=O)ON3C(=O)CCC3=O)[C@H]2N1,> 589,> 589,
CCCCCCCCC(=O)N(C)C1C2CN3CCC(O2)C13 (stereo not given),,,inactive
O=C(O)c1ccccc1SCc1cc(O)ccc1O,> 200,30.9,
CO[C@H]1C[C@H](O[C@H]2CC[C@]3(C=O)[C@H]4CC[C@]5(C)[C@@H](C6=CC(=O)OC6)CC[C@]5(O)[C@@H]4CC[C@]3(O)C2)O[C@H](C)[C@H]1O,,,inactive
CCCCNc1nc(C(F)(F)F)nc2nc[nH]c12,> 200,> 200,
CC(C)C(=O)OCC1OC(n2c(Br)nc3c(=O)[nH]c(N)nc32)C(OC(=O)C(C)C)C1OC(=O)C(C)C (stereo not given),> 200,91.2,
N#CCCN(CCC#N)c1ccc(/C=C2\N=C(c3cc([N+](=O)[O-])ccc3Cl)N(NC(=O)CC(=O)Nc3ccccc3Cl)C2=O)cc1,> 11,> 11,
CN(C)CCCN1C(=S)N(CCCN(C)C)c2c3cc(O)ccc3nc3c([N+](=O)[O-])ccc1c23,> 2,0.417,
COC(=O)/C=C/C=C/c1ccc2c(c1OC)C(=O)c1ccccc1C2=O,,,inactive
CCOC(=O)N/N=C(/OCC)c1ccccc1,> 200,> 200,
CC1CC2(C)ON=C(c3ccccc3)N2c2ccccc2S1 (stereo not given),,,inactive
O=C(Nc1cccc(NC(=O)c2cc(=O)c3ccccc3o2)n1)c1cc(=O)c2ccccc2o1,> 151,> 151,
